Measured values from US20250034212A1, “PEPTIDE” (PEPTIDREAM INC., priority 2021, published 2025).
Starred links: 1 amine or outer side, 2 acyl side, 3 side chain; linkers in the order of their positions; H or OH if unused. Positions of bridges follow the written chain, without caps; N, C: chain ends. Non-standard residues stand in square brackets, D forms with d. Residues, ends and D or L forms follow the SMILES beside them. Groups on a side chain read outwards from the residue. *: point of attachment. Meglumine = CN(C[C@H](O)[C@@H](O)[C@H](O)[C@H](O)CO)*; Piperazinyl(4-CH2COOH) = O=C(O)CN1CCN(*)CC1; 1Nal = N[C@@H](Cc1cccc2ccccc12)C(=O)O; Gly(NCH2CH2Ph) = O=C(O)CNCCc1ccccc1; 4Pal = N[C@@H](Cc1ccncc1)C(=O)O; CO = O=C([*:1])[*:2]

What was measured:
recombinant human TGF-β1 [1] = target: T1, recombinant human TGF-β1 (Homo sapiens, UniProt P01137); test: SPR intermolecular interaction test, TGF-β1 immobilized on CM3 sensor chip (Biacore T200); format: binding; settings: for Kd: Single Cycle Kinetics, human TGF-β1
T1 construct: purchased R&D systems
Protocol: In this Example, (1) the activity of binding to TGF-β for various peptides consisting of the amino acid sequences set forth in SEQ ID NOs: 2-33 synthesized in Examples 1 to 5 and 7 was evaluated. (2) The activity and selectivity of binding of the peptide consisting of the amino acid sequence set forth in SEQ ID NO: 13 synthesized in Example 2 against two isoforms of TGF-β (TGF-β1 and β2) were checked. For this purpose, the intermolecular interaction of each peptide against TGF-β was tested by surface plasmon resonance (SPR) in the method described below. Specific test methods are described below.
A CM3 sensor chip (Global Life Science Technologies Japan Co., Ltd.) was inserted into a BiacoreT200 (Global Life Science Technologies Japan Co., Ltd.). Three priming runs were performed using running buffer: HBS-EP+ (Global Life Science Technologies Japan Co., Ltd.). The system was then equilibrated at a flow rate of 30 μL/min.
Subsequently, 50 μL of 60 mM EDC solution (Global Life Science Technologies Japan Co., Ltd.) and 50 μL of 650 mM NHS solution (Global Life Science Technologies Japan Co., Ltd.) were mixed. Next, the reaction was carried out at a flow rate of 10 μL/min for 420 seconds. Then, 150 μL of 0.2 μM TGF-β solution diluted in 10 mM acetic acid solution (pH 5.0) was prepared and reacted at a flow rate of 10 μL/min for 420 seconds to immobilize TGF-β on the CM3 sensor chip. TGF-β was human-derived TGF-β1 or β2 (recombinant human TGF-β1, 2) and was obtained from R&D systems. After immobilization, capping was performed by reacting with 1.0 M ethanolamine aqueous solution (Global Life Science Technologies Japan Co., Ltd.) at a flow rate of […] for 420 seconds.
A liquid prepared by dissolving each peptide at 10 mM in DMSO solution was diluted with running buffer to prepare a peptide-dissolved solution at a final concentration of 10 μM. Subsequently, 50 nM, 25 nM, 12.5 nM, 5 nM, and 2.5 nM peptide solutions were prepared. Using the above samples, the kinetics of each peptide against TGF-β was obtained by SPR measurement.
The kinetics evaluation model was Single Cycle Kinetics, and curve fitting was performed using Biacore T200 Evaluation Software Version 3.0 (Global Life Science Technologies Japan Co., Ltd.). The binding of various peptides to TGF-β was evaluated by performing least-squares curve fitting on the obtained sensorgram to calculate the KD value.

recombinant human TGF-β1 [2] = target: T1, recombinant human TGF-β1; test: SBE reporter assay in SBE reporter-HEK293 cells, TGF-β1 stimulation; format: cell-based; settings: for inhibition at 62 pM: peptide 0.062 nM; for inhibition at 62 pM / inhibition at 0.000185 µM / inhibition at 0.00056 µM / inhibition at 0.0017 µM / inhibition at 0.005 µM / inhibition at 0.015 µM / inhibition at 75 pM / inhibition at 0.00075 µM / inhibition at 0.0075 µM / inhibition at 0.075 µM: TGF-β1 0.13 nM, 18 hours; for inhibition at 0.000185 µM: peptide 0.185 nM; for inhibition at 0.00056 µM: peptide 0.56 nM; for inhibition at 0.0017 µM: peptide 1.7 nM; for inhibition at 0.005 µM: peptide 5.0 nM; for inhibition at 0.015 µM: peptide 15.0 nM; for inhibition at 75 pM: peptide 0.075 nM; for inhibition at 0.00075 µM: peptide 0.75 nM; for inhibition at 0.0075 µM: peptide 7.5 nM; for inhibition at 0.075 µM: peptide 75.0 nM
Procedure, shortened: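 SBE luciferase reporter HEK293 cells in 0.5% FBS medium, preincubated 20 min with peptide, then stimulated 18 h with 0.13 nM recombinant human TGF-β1. Luminescence read; inhibition scaled with maximal TGF-β signal as 0% and unstimulated as 100%.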

T1 sequence (P01137 279-390 limits assumed): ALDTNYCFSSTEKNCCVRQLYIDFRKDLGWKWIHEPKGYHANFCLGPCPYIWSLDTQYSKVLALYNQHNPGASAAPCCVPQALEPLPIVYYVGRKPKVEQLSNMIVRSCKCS

Compound	Kd (recombinant human TGF-β1 [1]) [nM]	inhibition at 62 pM (recombinant human TGF-β1 [2]) [%]	inhibition at 0.000185 µM (recombinant human TGF-β1 [2]) [%]	inhibition at 0.00056 µM (recombinant human TGF-β1 [2]) [%]	inhibition at 0.0017 µM (recombinant human TGF-β1 [2]) [%]	inhibition at 0.005 µM (recombinant human TGF-β1 [2]) [%]	inhibition at 0.015 µM (recombinant human TGF-β1 [2]) [%]	inhibition at 75 pM (recombinant human TGF-β1 [2]) [%]	inhibition at 0.00075 µM (recombinant human TGF-β1 [2]) [%]	inhibition at 0.0075 µM (recombinant human TGF-β1 [2]) [%]	inhibition at 0.075 µM (recombinant human TGF-β1 [2]) [%]	ability of binding to TGF-β1 (in words) (recombinant human TGF-β1 [1])	TGF-β1 antagonist / inhibitory activity (in words) (recombinant human TGF-β1 [2]; SBE reporter assay, FIG. 1 and Tables 2 and 3)
CC(C)[C@@H]1NC(=O)CN(CCc2ccccc2)C(=O)[C@H](CCCCNC(=O)N(C)C[C@H](O)[C@@H](O)[C@H](O)[C@H](O)CO)NC(=O)[C@H](CC(=O)O)NC(=O)[C@H](Cc2ccncc2)NC(=O)[C@H](C(C)C)NC(=O)[C@H](CC(N)=O)NC(=O)[C@H](C(C)C)NC(=O)[C@H](C(C)C)NC(=O)[C@H](Cc2cccc3ccccc23)NC(=O)[C@H](Cc2ccccc2)NC(=O)CSC[C@@H](C(=O)NCC(N)=O)NC(=O)[C@H](CCCCNC(=O)N2CCN(CC(=O)O)CC2)NC(=O)[C@H](Cc2c[nH]cn2)NC(=O)[C@H](Cc2ccc(O)cc2)NC(=O)[C@H](Cc2cccc3ccccc23)NC1=O [TGFb1_023] ({CH2CO}-F[1Nal]VVNV[4Pal]DK([CO-Meglumine])[Gly(NCH2CH2Ph)]V[1Nal]YHK([CO-Piperazinyl(4-CH2COOH)])CG-NH2; thioether N-16)	1.04	8.58	24.4	49.7	82.3	96	99.5	–	–	–	–	–	–
CC(C)[C@@H]1NC(=O)CN(CCc2ccccc2)C(=O)[C@H](CC(=O)O)NC(=O)[C@H](CC(=O)O)NC(=O)[C@H](Cc2ccc(O)cc2)NC(=O)[C@H](C(C)C)NC(=O)[C@H](CC(N)=O)NC(=O)[C@H](C(C)C)NC(=O)[C@H](C(C)C)NC(=O)[C@H](Cc2cccc3ccccc23)NC(=O)[C@H](Cc2ccccc2)NC(=O)CSC[C@@H](C(=O)NCC(N)=O)NC(=O)[C@H](C(C)C)NC(=O)[C@H](Cc2c[nH]cn2)NC(=O)[C@H](Cc2ccc(O)cc2)NC(=O)[C@H](Cc2cccc3ccccc23)NC1=O [TGFb1_001, F-Nal1-V-V-N-V-Y-D-D-PeG-V-Nal1-Y-H-V-C-G] ({CH2CO}-F[1Nal]VVNVYDD[Gly(NCH2CH2Ph)]V[1Nal]YHVCG-NH2; thioether N-16)	–	–	–	–	–	–	–	19.7	69.7	98.1	101	confirmed to have TGF-β binding activity	TGF-β antagonist activity
CC(C)[C@@H]1NC(=O)CN(CCc2ccccc2)C(=O)[C@H](CCCCNC(=O)N(C)C[C@H](O)[C@@H](O)[C@H](O)[C@H](O)CO)NC(=O)[C@H](CC(=O)O)NC(=O)[C@H](Cc2ccncc2)NC(=O)[C@H](C(C)C)NC(=O)[C@H](CC(N)=O)NC(=O)[C@H](CCCCNC(=O)N(C)C[C@H](O)[C@@H](O)[C@H](O)[C@H](O)CO)NC(=O)[C@H](C(C)C)NC(=O)[C@H](Cc2cccc3ccccc23)NC(=O)[C@H](Cc2ccccc2)NC(=O)CSC[C@@H](C(=O)NCC(N)=O)NC(=O)[C@H](CCCCNC(=O)N2CCN(CC(=O)O)CC2)NC(=O)[C@H](Cc2c[nH]cn2)NC(=O)[C@H](Cc2ccc(O)cc2)NC(=O)[C@H](Cc2cccc3ccccc23)NC1=O [TGFb1_026] ({CH2CO}-F[1Nal]VK([CO-Meglumine])NV[4Pal]DK([CO-Meglumine])[Gly(NCH2CH2Ph)]V[1Nal]YHK([CO-Piperazinyl(4-CH2COOH)])CG-NH2; thioether N-16)	1.03	6.85	17.8	41.4	74.3	93.4	98	–	–	–	–	–	–

Continued by falling Kd (recombinant human TGF-β1 [1]), values first:

Kd (recombinant human TGF-β1 [1]) [nM]	inhibition at 62 pM (recombinant human TGF-β1 [2]) [%]	inhibition at 0.000185 µM (recombinant human TGF-β1 [2]) [%]	inhibition at 0.00056 µM (recombinant human TGF-β1 [2]) [%]	inhibition at 0.0017 µM (recombinant human TGF-β1 [2]) [%]	inhibition at 0.005 µM (recombinant human TGF-β1 [2]) [%]	inhibition at 0.015 µM (recombinant human TGF-β1 [2]) [%]	inhibition at 75 pM (recombinant human TGF-β1 [2]) [%]	inhibition at 0.00075 µM (recombinant human TGF-β1 [2]) [%]	inhibition at 0.0075 µM (recombinant human TGF-β1 [2]) [%]	inhibition at 0.075 µM (recombinant human TGF-β1 [2]) [%]	ability of binding to TGF-β1 (in words) (recombinant human TGF-β1 [1])	TGF-β1 antagonist / inhibitory activity (in words) (recombinant human TGF-β1 [2]; SBE reporter assay, FIG. 1 and Tables 2 and 3)	Compound
1.26	8.5	15.8	36.3	70.4	89.3	96.9	–	–	–	–	–	–	CC(C)[C@@H]1NC(=O)CN(CCc2ccccc2)C(=O)[C@H](CC(=O)O)NC(=O)[C@H](CC(=O)O)NC(=O)[C@H](Cc2ccncc2)NC(=O)[C@H](C(C)C)NC(=O)[C@H](CC(N)=O)NC(=O)[C@H](CCCCNC(=O)N(C)C[C@H](O)[C@@H](O)[C@H](O)[C@H](O)CO)NC(=O)[C@H](C(C)C)NC(=O)[C@H](Cc2cccc3ccccc23)NC(=O)[C@H](Cc2ccccc2)NC(=O)CSC[C@@H](C(=O)NCC(N)=O)NC(=O)[C@H](CCCCNC(=O)N2CCN(CC(=O)O)CC2)NC(=O)[C@H](Cc2c[nH]cn2)NC(=O)[C@H](Cc2ccc(O)cc2)NC(=O)[C@H](Cc2cccc3ccccc23)NC1=O [TGFb1_020] ({CH2CO}-F[1Nal]VK([CO-Meglumine])NV[4Pal]DD[Gly(NCH2CH2Ph)]V[1Nal]YHK([CO-Piperazinyl(4-CH2COOH)])CG-NH2; thioether N-16)
1.13	10.9	14.3	29.9	52.5	80.8	95.2	–	–	–	–	–	–	CC(C)[C@@H]1NC(=O)CN(CCc2ccccc2)C(=O)[C@H](CCCCNC(=O)N(C)C[C@H](O)[C@@H](O)[C@H](O)[C@H](O)CO)NC(=O)[C@H](CC(=O)O)NC(=O)[C@H](Cc2ccncc2)NC(=O)[C@H](C(C)C)NC(=O)[C@H](CC(N)=O)NC(=O)[C@H](CCCCNC(=O)N(C)C[C@H](O)[C@@H](O)[C@H](O)[C@H](O)CO)NC(=O)[C@H](C(C)C)NC(=O)[C@H](Cc2cccc3ccccc23)NC(=O)[C@H](Cc2ccccc2)NC(=O)CSC[C@@H](C(=O)NCC(N)=O)NC(=O)[C@H](CCC(=O)O)NC(=O)[C@H](Cc2c[nH]cn2)NC(=O)[C@H](Cc2ccc(O)cc2)NC(=O)[C@H](Cc2cccc3ccccc23)NC1=O [TGFb1_030] ({CH2CO}-F[1Nal]VK([CO-Meglumine])NV[4Pal]DK([CO-Meglumine])[Gly(NCH2CH2Ph)]V[1Nal]YHECG-NH2; thioether N-16)
1.03	–	–	–	–	–	–	2.8	69.3	97.1	99.7	–	–	CC(C)[C@@H]1NC(=O)CN(CCc2ccccc2)C(=O)[C@H](CC(=O)O)NC(=O)[C@H](CC(=O)O)NC(=O)[C@H](Cc2ccncc2)NC(=O)[C@H](C(C)C)NC(=O)[C@H](CC(N)=O)NC(=O)[C@H](C(C)C)NC(=O)[C@H](C(C)C)NC(=O)[C@H](Cc2cccc3ccccc23)NC(=O)[C@H](Cc2ccccc2)NC(=O)CSC[C@@H](C(=O)NCC(N)=O)NC(=O)[C@H](C(C)C)NC(=O)[C@H](Cc2c[nH]cn2)NC(=O)[C@H](Cc2ccc(O)cc2)NC(=O)[C@H](Cc2cccc3ccccc23)NC1=O [TGFb1_006] ({CH2CO}-F[1Nal]VVNV[4Pal]DD[Gly(NCH2CH2Ph)]V[1Nal]YHVCG-NH2; thioether N-16)
